Our source for the IC50 values is patent US9382228B2 (priority 2013, dated 2016).

Test [1] has as its target unphosphorylated c-KIT kinase (uKIT, Seq. ID no. 2) (Homo sapiens, UniProt P10721). In words: biochemical. As to conditions: uKIT, enzymatic assay, ATP 2000 μM.
Description: uKit kinase (Seq. ID No. 2) Assay
In this assay, the oxidation of NADH (thus the decrease at A340 nm) was continuously monitored spectrophometrically. […] The inhibition reaction was started by mixing serial diluted test compound with the above reaction mixture. The absorption at 340 nm was monitored continuously for 4 hours at 30° C. on Synergy 2 plate reader (BioTech).
A further test relates to osteoclast precursors. Description: cells. To be noted: read-out: Osteoclast assay. The class given is cell-based. The procedure:
Osteoclast Tartrate-Resistant Acid Phosphatase Assay
Diluted compound was transferred to a 384-well black clear bottom plate. Two-thousand five hundred osteoclast precursors (Lonza, Walkersville, Md.) were added per well in growth media containing Receptor Activator of Nuclear Factor Kappa-beta ligand (RANKL) and M-CSF (R&D Systems, Minneapolis, Minn.). […] Tartrate-resistant acid phosphatase activity in the supernatant samples was determined using an acid phosphatase assay kit (Sigma, St. Louis, Mo.). Absorbance was measured at 550 nm using a plate reader. Data was analyzed using Prism software (Graphpad, San Diego, Calif.) to calculate IC50 values.

A further test has as its system M-NFS-60 cells. Description: cells. To be noted: 67 h, read-out: M-NFS-60 cell proliferation.
Test [2] deals with T1, unphosphorylated c-FMS kinase (uFMS, Seq. ID no. 1) (Homo sapiens, UniProt P07333).
T1 sequence (P07333 538-972): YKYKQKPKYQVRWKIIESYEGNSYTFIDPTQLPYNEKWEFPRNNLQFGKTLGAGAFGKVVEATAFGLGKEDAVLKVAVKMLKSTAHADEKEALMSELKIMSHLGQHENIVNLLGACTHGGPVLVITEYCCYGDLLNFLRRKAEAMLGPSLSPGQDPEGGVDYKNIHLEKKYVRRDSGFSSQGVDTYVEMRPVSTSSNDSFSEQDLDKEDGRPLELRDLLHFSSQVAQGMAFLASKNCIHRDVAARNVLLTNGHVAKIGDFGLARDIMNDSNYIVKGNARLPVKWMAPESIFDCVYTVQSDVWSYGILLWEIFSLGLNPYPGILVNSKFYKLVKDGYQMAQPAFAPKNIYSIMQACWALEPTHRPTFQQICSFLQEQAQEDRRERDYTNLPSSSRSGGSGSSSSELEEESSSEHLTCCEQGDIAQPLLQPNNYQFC
Description: biochemical. To be noted: uFMS, enzymatic assay, ATP 500 μM.

Test [3] concerns the target unphosphorylated PDGFRβ kinase (uPDGFRβ, Seq. ID No. 3) (Homo sapiens, UniProt P09619). In words: biochemical. As to conditions: uPDGFRb, enzymatic assay, ATP 500 μM.

unphosphorylated PDGFRβ kinase (uPDGFRβ, Seq. ID No. 3), sequence (P09619 557-1106): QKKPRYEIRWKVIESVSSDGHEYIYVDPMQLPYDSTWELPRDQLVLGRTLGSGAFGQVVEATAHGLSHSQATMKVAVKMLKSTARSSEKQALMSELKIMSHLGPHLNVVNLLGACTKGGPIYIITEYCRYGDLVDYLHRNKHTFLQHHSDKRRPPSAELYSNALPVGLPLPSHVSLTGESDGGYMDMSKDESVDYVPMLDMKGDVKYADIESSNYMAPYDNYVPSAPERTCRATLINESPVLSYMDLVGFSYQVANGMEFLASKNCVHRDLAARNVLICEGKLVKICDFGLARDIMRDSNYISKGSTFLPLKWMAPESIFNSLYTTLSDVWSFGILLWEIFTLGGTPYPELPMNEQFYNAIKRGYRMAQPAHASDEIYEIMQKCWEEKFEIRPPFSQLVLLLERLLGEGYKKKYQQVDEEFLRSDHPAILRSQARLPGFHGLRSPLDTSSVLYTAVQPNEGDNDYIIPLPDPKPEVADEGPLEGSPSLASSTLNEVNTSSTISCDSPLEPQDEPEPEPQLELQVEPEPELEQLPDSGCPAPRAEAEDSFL
unphosphorylated c-KIT kinase (uKIT, Seq. ID no. 2), sequence (P10721 with tags, fused parts or gaps): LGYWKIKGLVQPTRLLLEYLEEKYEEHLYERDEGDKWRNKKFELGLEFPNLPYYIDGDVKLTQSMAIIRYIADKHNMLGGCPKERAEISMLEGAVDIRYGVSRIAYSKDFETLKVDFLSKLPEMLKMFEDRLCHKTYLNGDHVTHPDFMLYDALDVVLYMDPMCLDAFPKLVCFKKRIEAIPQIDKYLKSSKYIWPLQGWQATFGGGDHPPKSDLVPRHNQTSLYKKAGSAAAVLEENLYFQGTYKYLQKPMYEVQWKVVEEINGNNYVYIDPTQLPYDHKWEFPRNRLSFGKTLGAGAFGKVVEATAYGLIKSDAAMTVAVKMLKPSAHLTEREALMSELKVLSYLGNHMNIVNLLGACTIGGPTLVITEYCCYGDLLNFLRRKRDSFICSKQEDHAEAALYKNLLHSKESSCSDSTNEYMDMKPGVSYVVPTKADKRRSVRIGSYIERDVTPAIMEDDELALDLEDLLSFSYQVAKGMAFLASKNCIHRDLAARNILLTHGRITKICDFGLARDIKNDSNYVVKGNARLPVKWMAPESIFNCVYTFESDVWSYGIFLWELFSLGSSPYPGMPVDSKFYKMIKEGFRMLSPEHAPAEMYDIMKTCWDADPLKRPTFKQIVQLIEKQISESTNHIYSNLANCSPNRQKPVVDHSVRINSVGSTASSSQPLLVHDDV
Description for M-NFS-60 cells: M-NFS-6 Cell Proliferation Assay
A serial dilution of test compound was dispensed into a 384-well black clear bottom plate (Corning, Corning, N.Y.). Two thousand five hundred cells were added per well in 50 μL complete growth medium. […] IC50 values were calculated from a series of percent inhibition values determined at a range of inhibitor concentrations using software routines as implemented in the GraphPad Prism software package.

Regarding `Cc1cn(-c2cc(Oc3ccc(NC(=O)NC(=O)[C@@H]4C[C@H]5CC[C@@H]4O5)nc3C)ccn2)cn1` (relative stereo) [Example 137, exo-N-((6-methyl-5-((2-(4-methyl-1H-imidazol-1-yl)pyridin-4-yl)oxy)pyridin-2-yl)carbamoyl)-7-oxabicyclo[2.2.1]heptane-2-carboxamide], the IC50 is above 1000 nM in test [1]; 10 to 100 nM with osteoclast precursors; 100 to 1000 nM in the test with M-NFS-60 cells; 10 to 100 nM in test [2]; above 1000 nM in test [3].

With `Cc1nc(NC(=O)NC(=O)C(C)(C)C#N)ccc1Oc1ccnc(-c2cnn(C)c2)c1` [Example 29, 2-cyano-2-methyl-N-((6-methyl-5-((2-(1-methyl-1H-pyrazol-4-yl)pyridin-4-yl)oxy)pyridin-2-yl)carbamoyl)propanamide], the IC50 in test [1] is above 1000 nM; in the test on M-NFS-60 cells, 100 to 1000 nM; in test [2] it was 10 to 100 nM; in test [3], above 1000 nM.

On to `Cn1cc(-c2cc(Oc3ccc(NC(=O)NC(=O)C(C)(C)C#N)nc3)ccn2)cn1` [Example 30, 2-cyano-2-methyl-N-((5-((2-(1-methyl-1H-pyrazol-4-yl)pyridin-4-yl)oxy)pyridin-2-yl)carbamoyl)propanamide], for which the IC50 is above 1000 nM in test [1], above 1000 nM in the test on M-NFS-60 cells, 100 to 1000 nM in test [2] and above 1000 nM in test [3].

Take `Cc1nc(NC(=O)NC(=O)C23CC4CC(CC(C4)C2)C3)ccc1Oc1ccnc(-c2cnn(C)c2)c1` [Example 37, N-((6-methyl-5-((2-(1-methyl-1H-pyrazol-4-yl)pyridin-4-yl)oxy)pyridin-2-yl)carbamoyl)adamantane-1-carboxamide]: the IC50 is 10 to 100 nM in test [1]; 100 to 1000 nM in the test with osteoclast precursors; 10 to 100 nM with M-NFS-60 cells; below 10 nM in test [2]; 10 to 100 nM in test [3].

`Cn1cc(-c2cc(Oc3ccc(NC(=O)NC(=O)CC4CC5CCC4C5)nc3)ccn2)cn1` (stereo not drawn) [Example 62, 2-(bicyclo[2.2.1]heptan-2-yl)-N-((5-((2-(1-methyl-1H-pyrazol-4-yl)pyridin-4-yl)oxy)pyridin-2-yl)carbamoyl)acetamide]: the IC50 (in test [1]; with osteoclast precursors; in the test with M-NFS-60 cells; in test [2]; in test [3]) was below 10 nM in each case.

`CCC(C)(C)C(=O)NC(=O)Nc1ccc(Oc2ccnc(-c3cnn(C)c3)c2)cn1` [Example 63, 2,2-dimethyl-N-((5-((2-(1-methyl-1H-pyrazol-4-yl)pyridin-4-yl)oxy)pyridin-2-yl)carbamoyl)butanamide]: the IC50 in test [1] was 100 to 1000 nM; with osteoclast precursors, below 10 nM; in the test on M-NFS-60 cells, below 10 nM; in test [2], below 10 nM; in test [3], 100 to 1000 nM.

Turning to `Cn1cc(-c2cc(Oc3ccc(NC(=O)NC(=O)C4CC5CCC4C5)nc3)ccn2)cn1` (stereo not drawn) [Example 64, N-((5-((2-(1-methyl-1H-pyrazol-4-yl)pyridin-4-yl)oxy)pyridin-2-yl)carbamoyl)bicyclo[2.2.1]heptane-2-carboxamide], the IC50 was below 10 nM in test [1]; 10 to 100 nM in the test with osteoclast precursors; below 10 nM with M-NFS-60 cells; below 10 nM in test [2]; 10 to 100 nM in test [3].

In the case of `Cn1cc(-c2cc(Oc3ccc(NC(=O)NC(=O)C4CCCC4)nc3)ccn2)cn1` [Example 65, N-((5-((2-(1-methyl-1H-pyrazol-4-yl)pyridin-4-yl)oxy)pyridin-2-yl)carbamoyl)cyclopentanecarboxamide], the IC50 in test [1] was below 10 nM; in the test on osteoclast precursors, below 10 nM; with M-NFS-60 cells, below 10 nM; in test [2], below 10 nM; in test [3] it was 100 to 1000 nM.

Take `Cn1cc(-c2cc(Oc3ccc(NC(=O)NC(=O)C4CCCCC4)nc3)ccn2)cn1` [Example 67, N-((5-((2-(1-methyl-1H-pyrazol-4-yl)pyridin-4-yl)oxy)pyridin-2-yl)carbamoyl)cyclohexanecarboxamide]: the IC50 is below 10 nM in test [1]; below 10 nM with osteoclast precursors; below 10 nM in the test with M-NFS-60 cells; below 10 nM in test [2]; 10 to 100 nM in test [3].

Regarding `Cn1cc(-c2cc(Oc3ccc(NC(=O)NC(=O)C4CCOCC4)nc3)ccn2)cn1` [Example 68, N-((5-((2-(1-methyl-1H-pyrazol-4-yl)pyridin-4-yl)oxy)pyridin-2-yl)carbamoyl)tetrahydro-2H-pyran-4-carboxamide], the IC50 was 100 to 1000 nM in test [1]; below 10 nM with osteoclast precursors; 10 to 100 nM in the test on M-NFS-60 cells; below 10 nM in test [2]; 100 to 1000 nM in test [3].

`Cn1cc(-c2cc(Oc3ccc(NC(=O)NC(=O)C4CC5CCC4CC5)nc3)ccn2)cn1` (stereo not drawn) [Example 74, N-((5-((2-(1-methyl-1H-pyrazol-4-yl)pyridin-4-yl)oxy)pyridin-2-yl)carbamoyl)bicyclo[2.2.2]octane-2-carboxamide]: the IC50 in test [1] is below 10 nM; with osteoclast precursors, 10 to 100 nM; with M-NFS-60 cells, below 10 nM; in test [2], below 10 nM; in test [3], 10 to 100 nM.

Turning to `Cc1cc(-c2cc(Oc3ccc(NC(=O)NC(=O)C4CCOC4)nc3)ccn2)ccn1` (stereo not drawn) [Example 85, N-((5-((2′-methyl-[2,4′-bipyridin]-4-yl)oxy)pyridin-2-yl)carbamoyl)tetrahydrofuran-3-carboxamide], the IC50 is above 1000 nM in test [1]; 10 to 100 nM in the test on osteoclast precursors; 100 to 1000 nM in the test with M-NFS-60 cells; 10 to 100 nM in test [2]; above 1000 nM in test [3].

With `Cn1cc(-c2cc(Oc3ccc(NC(=O)NC(=O)C4(C)CCC4)nc3)ccn2)cn1` [Example 87, 1-methyl-N-((5-((2-(1-methyl-1H-pyrazol-4-yl)pyridin-4-yl)oxy)pyridin-2-yl)carbamoyl)cyclobutanecarboxamide], the IC50 was 100 to 1000 nM in test [1]; below 10 nM in the test with osteoclast precursors; below 10 nM with M-NFS-60 cells; below 10 nM in test [2]; 100 to 1000 nM in test [3].

Regarding `Cc1cc(NC(=O)NC(=O)C(C)C)ncc1Oc1ccnc(-c2cnn(C)c2)c1` [Example 88, N-((4-methyl-5-((2-(1-methyl-1H-pyrazol-4-yl)pyridin-4-yl)oxy)pyridin-2-yl)carbamoyl)isobutyramide], the IC50 was 10 to 100 nM in test [1]; below 10 nM in the test on osteoclast precursors; below 10 nM in the test on M-NFS-60 cells; below 10 nM in test [2]; 100 to 1000 nM in test [3].

As for `Cc1ccc(-c2cc(Oc3ccc(NC(=O)NC(=O)C4CCOC4)nc3)ccn2)cn1` (stereo not drawn) [Example 89, N-((5-((6′-methyl-[2,3′-bipyridin]-4-yl)oxy)pyridin-2-yl)carbamoyl)tetrahydrofuran-3-carboxamide], the IC50 was above 1000 nM in test [1]; 10 to 100 nM in the test with osteoclast precursors; 10 to 100 nM with M-NFS-60 cells; 10 to 100 nM in test [2]; above 1000 nM in test [3].

On to `CC(C)(C)C(=O)NC(=O)Nc1ccc(Oc2ccnc(-c3cncnc3)c2)cn1` [Example 90, N-((5-((2-(pyrimidin-5-yl)pyridin-4-yl)oxy)pyridin-2-yl)carbamoyl)pivalamide], for which the IC50 in test [1] was above 1000 nM; in the test with osteoclast precursors, 10 to 100 nM; in the test with M-NFS-60 cells, above 1000 nM; in test [2] it was 10 to 100 nM; in test [3], above 1000 nM.
